Measurements as given in publication PMC6151695, “Novel Selective Estrogen Receptor Ligand Conjugates Incorporating Endoxifen-Combretastatin and Cyclofenil-Combretastatin Hybrid Scaffolds: Synthesis and Biochemical Evaluation” (Molecules : A Journal of Synthetic Chemistry and Natural …, 2017).
Marks after values point to notes of the source that are not given here.

Columns and labels:
[1] = system: MCF-7 human breast cancer cell line; assay: Alamar Blue assay for antiproliferative effects; type: cell-based; details: Homo sapiens, MCF7, 72 h, MCF-7, 72 h, Alamar Blue; read-out: IC50 (μM), antiproliferative effects
[2] = system: CCRF-CEM; assay: NCI60 in vitro screen, Leukemia; type: cell-based, human
[3] = system: K-562; assay: NCI60 in vitro screen, Leukemia; type: cell-based, human
[4] = system: MOLT-4; assay: NCI60 in vitro screen, Leukemia; type: cell-based, human
[5] = system: RPMI-8226; assay: NCI60 in vitro screen, Leukemia; type: cell-based, human
[6] = system: SR; assay: NCI60 in vitro screen, Leukemia; type: cell-based, human
[7] = system: HOP-92; assay: NCI60 in vitro screen, Non-Small Cell Lung Cancer; type: cell-based, human
[8] = system: NCI-H23; assay: NCI60 in vitro screen, Non-Small Cell Lung Cancer; type: cell-based, human
[9] = system: NCI-H460; assay: NCI60 in vitro screen, Non-Small Cell Lung Cancer; type: cell-based, human
[10] = system: COLO 205; assay: NCI60 in vitro screen, Colon Cancer; type: cell-based, human
[11] = system: HCT-116; assay: NCI60 in vitro screen, Colon Cancer; type: cell-based, human
[12] = system: HT29; assay: NCI60 in vitro screen, Colon Cancer; type: cell-based, human
[13] = system: SW-620; assay: NCI60 in vitro screen, Colon Cancer; type: cell-based, human
[14] = system: SF-268; assay: NCI60 in vitro screen, CNS Cancer; type: cell-based, human
[15] = system: PC-3; assay: NCI60 in vitro screen, Prostate cancer; type: cell-based, human
[16] = system: LOX IMV1; assay: NCI60 in vitro screen, Melanoma; type: cell-based, human
[17] = system: M14; assay: NCI60 in vitro screen, Melanoma; type: cell-based, human
[18] = system: SK-MEL-2; assay: NCI60 in vitro screen, Melanoma; type: cell-based, human
[19] = system: UACC-257; assay: NCI60 in vitro screen, Melanoma; type: cell-based, human
[20] = system: OVCAR-3; assay: NCI60 in vitro screen, Ovarian cancer; type: cell-based, human
[21] = system: OVCAR-5; assay: NCI60 in vitro screen, Ovarian cancer; type: cell-based, human
[22] = system: SK-OV-3; assay: NCI60 in vitro screen, Ovarian cancer; type: cell-based, human
[23] = system: 786-0; assay: NCI60 in vitro screen, Renal cancer; type: cell-based, human
[24] = system: SN12C; assay: NCI60 in vitro screen, Renal cancer; type: cell-based, human
[25] = system: MDA-MB-231/ATCC; assay: NCI60 in vitro screen, Breast cancer; type: cell-based, human
[26] = system: T-47D; assay: NCI60 in vitro screen, Breast cancer; type: cell-based, human
[27] = system: MDA-MB-468; assay: NCI60 in vitro screen, Breast cancer; type: cell-based, human
[28] = system: MCF-7 cells; details: human
[29] = system: MCF-7; details: MCF-7, 10 μM
[30] = in vitro; details: human

CC/C(=C(\c1ccccc1)c1ccc(OCCN(C)C(=O)CCC(=O)Oc2cc(/C=C\c3cc(OC)c(OC)c(OC)c3)ccc2OC)cc1)c1ccccc1 (mixture of isomers) [Compound 16a, N-{2-[4-((Z)-1,2-Diphenylbut-1-enyl)phenoxy]ethyl}-N-methylsuccinamic acid 2-methoxy-5-[(Z)-2-(3,4,5-trimethoxyphenyl)vinyl]phenyl ester]
IC50 [1]: 0.09 µM
Growth % (10^−5 M) ([2]; 10 μM): 20.38%
GI50 ([2]; Homo sapiens): 39.4 nM
GI50 ([3]; Homo sapiens, K562, K-562): < 10 nM
Growth % (10^−5 M) ([3]; K-562, 10 μM): 41.7%
GI50 ([4]; Homo sapiens, MOLT-4): 39.8 nM
Growth % (10^−5 M) ([4]; MOLT-4, 10 μM): 36.2%
GI50 ([5]; Homo sapiens, RPMI-8226): 27.1 nM
Growth % (10^−5 M) ([5]; RPMI-8226, 10 μM): −18.51 ^e %
Growth % (10^−5 M) ([6]; 10 μM): 29.68%
GI50 ([6]; Homo sapiens): 18.9 nM
Growth % (10^−5 M) ([7]; HOP-92, 10 μM): 58.55%
GI50 ([7]; Homo sapiens, HOP-92): < 10 nM
GI50 ([8]; Homo sapiens, NCI-H23): 45.9 nM
Growth % (10^−5 M) ([8]; NCI-H23, 10 μM): 12.25%
GI50 ([9]; Homo sapiens, NCI-H460): 29.9 nM
Growth % (10^−5 M) ([9]; NCI-H460, 10 μM): −6.77 ^e %
Growth % (10^−5 M) ([10]; COLO 205, 10 μM): −55 ^e %
GI50 ([10]; Homo sapiens, COLO 205): 378 nM
Growth % (10^−5 M) ([11]; HCT-116, 10 μM): 1.61%
GI50 ([11]; Homo sapiens, HCT-116): 15.6 nM
inhibition at 10 µM ([11]; Homo sapiens, HCT-116, one-dose, 10 μM, read-out: growth inhibition): 98%
Growth % (10^−5 M) ([12]; HT29, 10 μM): 6.79%
GI50 ([12]; Homo sapiens, HT-29, HT29): 489 nM
inhibition at 10 µM ([12]; Homo sapiens, HT-29, HT29, one-dose, 10 μM, read-out: growth inhibition): 93%
GI50 ([13]; Homo sapiens, SW-620): < 10 nM
Growth % (10^−5 M) ([13]; SW-620, 10 μM): 28.17%
GI50 ([14]; Homo sapiens, SF-268): 25.3 nM
Growth % (10^−5 M) ([14]; SF-268, 10 μM): 18.51%
GI50 ([15]; Homo sapiens, PC-3): 12 nM
Growth % (10^−5 M) ([15]; PC-3, 10 μM): 19.1%
GI50 ([16]; Homo sapiens, LOX IMV1): 35.8 nM
Growth % (10^−5 M) ([16]; LOX IMV1, 10 μM): 28.97%
GI50 ([17]; Homo sapiens, M14): 12.9 nM
inhibition at 10 µM ([17]; Homo sapiens, M14, one-dose, 10 μM, read-out: growth inhibition): 99%
Growth % (10^−5 M) ([17]; M14, 10 μM): 1.39%
GI50 ([18]; Homo sapiens, SK-MEL-2): > 10000 nM
Growth % (10^−5 M) ([18]; SK-MEL-2, 10 μM): 37.97%
GI50 ([19]; Homo sapiens, UACC-257): > 10000 nM
Growth % (10^−5 M) ([19]; UACC-257, 10 μM): 48.73%
GI50 ([20]; Homo sapiens, OVCAR-3): < 10 nM
Growth % (10^−5 M) ([20]; OVCAR-3, 10 μM): −57.79 ^e %
GI50 ([21]; Homo sapiens, OVCAR-5): 89.4 nM
Growth % (10^−5 M) ([21]; OVCAR-5, 10 μM): 34.65%
GI50 ([22]; Homo sapiens, SK-OV-3): 36.8 nM
Growth % (10^−5 M) ([22]; SK-OV-3, 10 μM): 17.23%
Growth % (10^−5 M) ([23]; 786-0, 10 μM): 11.54%
GI50 ([23]; Homo sapiens, 786-0): 185 nM
Growth % (10^−5 M) ([24]; 10 μM): 31.84%
GI50 ([24]; Homo sapiens): 57.6 nM
Growth % (10^−5 M) ([25]; 10 μM): 23.19%
GI50 ([25]; Homo sapiens): 28.6 nM
Growth % (10^−5 M) ([26]; 10 μM): 59.73%
GI50 ([26]; Homo sapiens, T47D): > 10000 nM
GI50 ([27]; Homo sapiens, MDA-MB-468): 34.3 nM
inhibition at 10 µM ([27]; Homo sapiens, MDA-MB-468, one-dose, 10 μM, read-out: growth inhibition): 99%
Growth % (10^−5 M) ([27]; MDA-MB-468, 10 μM): 0.68%
cytotoxicity (LDH assay) [28]: 13.2%
Growth % (10^−5 M) [29]: 10.06%
CC50 [30]: > 100000 nM
